Laboratory results from PMC4491176, “Caenorhabditis elegans is a useful model for anthelmintic discovery” (Nature Communications, 2015).

Experiments:
[1] = tested on: wact-11-family resistant C. elegans mutants (RP2674, RP2698 and others); test: 96-well liquid-based dose-response (in vivo LD100), wact-11-family resistant mutants; details: liquid dose-response of resistant mutants versus N2
Protocol: (§1) The 96-well liquid-based chemical screening assay was adapted from an established RNAi screening protocol. Briefly, saturated HB101 Escherichia coli culture was concentrated 2-fold using NGM (nematode growth media) containing 3 mg ml^−1 NaCl, 2.5 mg ml^−1 peptone, 5 μg ml^−1 cholesterol, 1 mM CaCl2, 1 mM MgSO4 and 25 mM KH2PO4. A total of 40 μl of NGM+HB101 was dispensed into each well of a 96-well plate, and chemicals were pinned into the wells using a pinning tool with a 300 nl slot volume (V&P Scientific). Approximately 20 synchronized first larval-stage (L1) worms, in 10 μl of M9 buffer (see ref. [24] for the recipe), were then added to each well. The synchronized L1s were obtained from an embryo preparation (see ref. [24] for the protocol) performed the previous day. The final concentration of dimethyl sulfoxide (DMSO) in the wells was 0.6% v/v. A dissection microscope was used to visualize the wells either 5 or 6 days post worm deposition and any obvious chemical-induced phenotypes were noted.
The 96-well liquid-based assay was also used for all follow-up dose-response experiments in this work. These experiments were carried out in quadruplicate, and the total number of worms in each well was counted 6 days after worm deposition.

[2] = tested on: C. elegans; test: C. elegans liquid-based chemical screening of the wactive library; assay type: in vivo, Caenorhabditis elegans; set-up: key: 1 = yes
Protocol: as §1
For our preliminary screens, 50,596 out of 67,012 compounds were assayed in liquid at a 60 μM concentration, and the other 16,416 molecules were screened on solid media at 25 μM (see ref. [24] for a description of our solid-based screening method). […]

[3] = tested on: C. onchophora; test: C. oncophora egg hatch chemical screen; assay type: in vivo, Cooperia onchophora; set-up: key: 1 = yes; details: 90-100% lethal at 7.5 or 60 μM
Protocol: (§2) Fresh cattle and sheep faeces containing eggs of an ivermectin-resistant strain of C. onchophora[39] and the MHco3(ISE) strain of H. contortus, respectively, were kindly supplied by Dr Doug Colwell and Dawn Gray (Lethbridge Research Station, Agriculture and Agri-Food Canada). Experimental infections used to generate this material were carried out using established methods, and were approved by the Lethbridge AAFC Animal Care committee and conducted under animal use license ACC1407. Cattle faeces containing C. onchophora eggs were stored anaerobically at 4 °C for a maximum of 3 weeks, whereas sheep faeces containing H. contortus eggs were stored at 20 °C for no more than 48 h before harvesting eggs for use. Eggs were isolated from faeces using a standard saturated salt flotation method[42] immediately before each egg hatch assay. Approximately 100 eggs suspended in 100 μl of water were added to each well of a 96-well plate, and the wactive library chemicals were screened at two different concentrations (7.5 and 60 μM, 0.6% DMSO v/v). Baseline egg hatch rates were determined in DMSO control wells ∼48 h after the initial set-up of the assay by the addition of iodine tincture to stop development. […] A dissection microscope was used for visualization purposes.

[4] = tested on: H. contortus; test: H. contortus egg hatch chemical screen; assay type: in vivo, Haemonchus contortus; details: 90-100% lethal at 7.5 or 60 μM
Protocol: as §2

[5] = tested on: D. rerio; test: Zebrafish embryo chemical screening; assay type: in vivo, Danio rerio (zebrafish); details: embryos, 10 μM, death or toxicity at 24 and 48 h post fertilization
Protocol: Wild-type (AB) zebrafish embryos were collected in E3 solution (5 mM NaCl, 0.17 mM KCl, 0.33 mM CaCl2, 0.33 mM MgSO4) immediately after fertilization and arrayed at three embryos per well in 96-well plates, 200 μl per well. Wild-type (AB) zebrafish were originally obtained from Zebrafish International Resource Center (University of Oregon). Chemicals were added to each well at 6 h post fertilization at a final concentration of 10 μM (0.5% v/v DMSO), with each plate containing nine wells of DMSO controls. Embryos were examined for mortality and observable developmental phenotypes at 24 and 48 h post fertilization using an Olympus SZX10 Brightfield microscope. Phenotypes examined were death, developmental delay, reduced pigmentation, cranial oedema or cardiac defects (slow/absent heart rate, abnormal heart size). Each compound was screened in duplicate, with only phenotypes appearing in both replicates associated with a given compound. Any compound producing multiple, distinct phenotypes across replicates (for example, cardiac defects in one replicate, mortality in another) was labelled ‘toxic'. A molecule was considered ‘lethal' to zebrafish if it induced ‘death' or ‘toxicity'.

[6] = tested on: HEK293T cells; test: HEK293 cell proliferation (BrdU) chemical screening; assay type: cell-based; details: 60 μM, BrdU normalized signal <0.16
Protocol: HEK293T cells (Attisano Lab, University of Toronto) were maintained in Dulbecco's Modified Eagle's Medium (Gibco) supplemented with 10% FBS (DMEM-10% FBS). Cells at a concentration of 50 cells μl^−1 were seeded into 96-well plates at a final volume of 100 μl (∼5,000 cells per well). Chemicals from the wactive library were added to the wells for a final concentration of 60 μM (0.6% DMSO v/v). The wactive library plates were screened at least in triplicate. Cell proliferation was determined using a bromodeoxyuridine (BrdU) assay kit (Exalpha Biologicals Inc.). The BrdU was added 2 days after chemical addition. Fixation and denaturation was performed ∼16–18 h later. Anti-BrdU antibody was added, and incorporated BrdU was detected using a horseradish peroxidase-conjugated goat anti-mouse antibody. The BrdU incorporation signal was measured at 450/550 nm for the amount of conversion of tetra-methylbenzidine that is proportional to the amount of BrdU incorporated. For each replicate of each plate, the average signal for the DMSO control wells was calculated. For each well in the plate (including the DMSO control wells), the signal was normalized by dividing by the average DMSO signal. The mean and standard deviation for the population of 960 normalized sample signals of the 10-plate wactive library were calculated and found to be […] and 0.44, respectively.

[7] = tested on: three nematode species, zebrafish and HEK cells; test: Grouping by phylogenetic bioactivity profile (multi-organism screening pipeline); set-up: key: Group 1 molecules are lethal to only one or two of the three nematode species tested, but are non-lethal to zebrafish and HEK cells.; Group 2 molecules are lethal to all three nematode species, but are non-lethal to zebrafish and human cells.; Group 3 molecule are lethal to fish or HEK cells, regardless of their nematode bioactivity profile; details: nematode selectivity and cross-species lethality group
Source text: To further characterize our 275 C. elegans-lethal molecules, we organized them into three separate groups based on their phylogenetic bioactivity profiles (Fig. 2a). Group 1 contains 102 molecules that are lethal to only one or two of the three nematode species tested, but are non-lethal to zebrafish and HEK cells. Group 2 contains 67 compounds that are lethal to all three nematode species, but are non-lethal to zebrafish and human cells. Group 3 contains the remaining 106 compounds that are lethal to fish or HEK cells, and have varied bioactivity in different nematode species. In particular, the 67 molecules in group 2 represent potentially ideal anthelmintic leads; they have activity across multiple nematode species, and appear not to affect vertebrates.

Brc1ccc(-c2noc(-c3cccs3)n2)cc1 [wact-2]
Resistance of wact-11-family resistant mutants to compound-induced lethality (in words) [1]: not
C. elegans Lethal (1 = yes) ([2]; 100% lethality at 60 μM or less): 1
Wactive (1 = yes) ([2]; induces obvious phenotype in C. elegans at 60 μM or less): 1
C. onchophora Lethal (1 = yes) [3]: 1
H. contortus Lethal (1 = yes) [4]: 0
D. rerio Lethal (1 = yes) [5]: 0
HEK Cell Growth Decrease (1 = yes) [6]: 0
Group # (Bioactivity Group #) [7]: 1
